Where two headings read alike, the source gives them in different places. Marks after values point to notes of the source that are not given here.
Legend:
[1] = Lipophilicity, octanol-water partition coefficient by shake flask method; assay type: physicochemical; conditions: 22° C., P=log Ax/(A0−Ax)
Protocol: Lipophilicity of the identified EGCG derivatives was determined as octanol-water partition coefficient (P) by a shake flask method. Briefly, a flask containing a mixture of octanol (100 ml) and deionized water (100 ml) was shaken in a shaking waterbath at room temperature (22° C.) for 24 hours. The content was then allowed to stand for 24 hours for separation into two phases. Test compounds (0.2 μmol) were dissolved in 5 ml of the upper phase (pre-saturated octanol), and the absorbance (A0) was read at 280 nm. A blank with no sample was prepared. Five milliliters of the bottom phase (pre-saturated water) were added afterwards, and the mixtures were vortexed for 1 min and allowed to stand for 24 hours for separation. Absorbance (Ax) of the upper phase in the vials was measured and octanol-water partition coefficient (P) calculated using the following equation: P=log Ax/(A0−Ax), where blank-corrected absorbance was used.

[2] = test system: LPS-induced NO production; experiment: LPS-induced NO production in RAW 264.7 macrophage (Griess reaction); assay type: cell-based, murine; conditions: RAW 264.7 macrophage, nitrite by Griess reaction, read-out: IC50, inhibition against LPS-induced NO production
Protocol: RAW 264.7 cells were cultured in Rosewell Park Memorial Institute (RPMI) 1640 media (without phenol red) supplemented with 10% endotoxin-free, heat-inactivated fetal calf serum, 100 units/ml penicillin, and 100 μg/ml streptomycin. When the cells reached a density of 2-3×10^6 cells/ml, they were activated by incubation in a medium containing E. coli lipopolysaccharide (LPS) (100 ng/ml). Various concentrations of compounds of the disclosure in dimethyl sulphoxide (DMSO) were added together with LPS. Cells were treated with 0.05% DMSO as the vehicle control. The stimulated murine macrophage cell line RAW 264.7 cells were washed with PBS and lysed in an ice-cold RIPA buffer (Tris-HCl, pH 7.2, 25 mM; 0.1% SDS; 1% Triton X-100; 1% sodium deoxycholate; 0.15 M NaCl; 1 mM EDTA) containing 1 mM phenylmethyl sulphonyl fluoride (PMSF), 10 μg/mL aprotinin, 1 mM sodium ortho-vanadate, and 5 μg/mL leupeptin. Protein concentrations were determined using the BCA method (Pierce, Rockford, Ill.). The samples (50 μg of protein) were mixed with 5-fold of sample buffer containing 0.3 M Tris-HCl (pH 6.8), 25% 2-mercaptoethanol, 12% sodium dodecyl sulphate (SDS), 25 mM EDTA, 20% glycerol, and 0.1% bromophenol blue. The mixtures were boiled at 100° C. for 5 min, prerun on a stacking gel, and then resolved by 12% SDS-polyacrylamide minigels at a constant current of 20 mA. For western blot, proteins on the gel were electro-transferred onto a […] immobile polyvinylidene fluoride (PVDF) membrane with a transfer buffer composed of 25 mM Tris-HCl (pH 8.9), 192 mM glycine, and 20% methanol, as described by Pan et al. (2000). Membrane blocking was then carried out at room temperature for 1 h in blocking solution (20 mM Tris-HCl pH 7.4, 125 mM NaCl, 0.2% Tween 20, 1% bovine serum albumin, and 0.1% sodium azide). The membrane was incubated with the primary antibody of iNOS and COX-2 at 4° C. overnight. The membranes were subsequently probed with selected IgG antibody conjugated to horseradish peroxidase (Transduction Laboratories, Lexington, Ky.) and visualized using enhanced chemiluminescence (ECL, Amersham). The densities of the bands were quantitated using a densitometer (AlphaImager 2200 System). All the membranes were stripped and reprobed for β-actin (Sigma Chemical Co., St. Louis, Mo.) as loading control. […] The inhibition of iNOS induction by compounds of the disclosure may be due to down regulation of iNOS gene expression. […] (7b) Inhibition Against LPS-Induced NO Production in RAW 264.7 Macrophage The LPS-induced NO production by the macrophages was determined as nitrite concentration in the culture medium according to the Griess reaction. […] The absorbance of the mixture at 550 nm was measured with an ELISA plate reader (Dynatech MR-7000; Dynatech Laboratories, Chantilly, Va., USA). […]

COX-2 = COX-2 protein expression in LPS-stimulated RAW 264.7 macrophages (western blot); assay type: cell-based, murine; conditions: LPS 100 ng/ml, RAW 264.7, western blot
Protocol: RAW 264.7 cells were cultured in Rosewell Park Memorial Institute (RPMI) 1640 media (without phenol red) supplemented with 10% endotoxin-free, heat-inactivated fetal calf serum, 100 units/ml penicillin, and 100 μg/ml streptomycin. When the cells reached a density of 2-3×10^6 cells/ml, they were activated by incubation in a medium containing E. coli lipopolysaccharide (LPS) (100 ng/ml). Various concentrations of compounds of the disclosure in dimethyl sulphoxide (DMSO) were added together with LPS. Cells were treated with 0.05% DMSO as the vehicle control. The stimulated murine macrophage cell line RAW 264.7 cells were washed with PBS and lysed in an ice-cold RIPA buffer (Tris-HCl, pH 7.2, 25 mM; 0.1% SDS; 1% Triton X-100; 1% sodium deoxycholate; 0.15 M NaCl; 1 mM EDTA) containing 1 mM phenylmethyl sulphonyl fluoride (PMSF), 10 μg/mL aprotinin, 1 mM sodium ortho-vanadate, and 5 μg/mL leupeptin. Protein concentrations were determined using the BCA method (Pierce, Rockford, Ill.). The samples (50 μg of protein) were mixed with 5-fold of sample buffer containing 0.3 M Tris-HCl (pH 6.8), 25% 2-mercaptoethanol, 12% sodium dodecyl sulphate (SDS), 25 mM EDTA, 20% glycerol, and 0.1% bromophenol blue. The mixtures were boiled at 100° C. for 5 min, prerun on a stacking gel, and then resolved by 12% SDS-polyacrylamide minigels at a constant current of 20 mA. For western blot, proteins on the gel were electro-transferred onto a […] immobile polyvinylidene fluoride (PVDF) membrane with a transfer buffer composed of 25 mM Tris-HCl (pH 8.9), 192 mM glycine, and 20% methanol, as described by Pan et al. (2000). Membrane blocking was then carried out at room temperature for 1 h in blocking solution (20 mM Tris-HCl pH 7.4, 125 mM NaCl, 0.2% Tween 20, 1% bovine serum albumin, and 0.1% sodium azide). The membrane was incubated with the primary antibody of iNOS and COX-2 at 4° C. overnight. The membranes were subsequently probed with selected IgG antibody conjugated to horseradish peroxidase (Transduction Laboratories, Lexington, Ky.) and visualized using enhanced chemiluminescence (ECL, Amersham). The densities of the bands were quantitated using a densitometer (AlphaImager 2200 System). All the membranes were stripped and reprobed for β-actin (Sigma Chemical Co., St. Louis, Mo.) as loading control. […] The inhibition of iNOS induction by compounds of the disclosure may be due to down regulation of iNOS gene expression. EGCG and compounds of the disclosure with antioxidant activities may inhibit the ROS/RNS-mediated activation of NF-κB, the transcription factor that promotes gene expression of iNOS. […] The difference in their ability to inhibit production of iNOS and COX-2 may be due to other mechanisms involved in addition to blocking the NF-κB signalling pathway. EGCG and its derivatives may also suppress the cytokine production by breaking down the mRNA and protein of iNOS and COX-2 to varied degrees. (7b) Inhibition Against LPS-Induced NO Production in RAW 264.7 Macrophage The LPS-induced NO production by the macrophages was determined as nitrite concentration in the culture medium according to the Griess reaction. The culture medium of the control and treated cells was collected and centrifuged. An aliquot (100 μL) of the supernatant was mixed with an equal volume of Griess reagent. The absorbance of the mixture at 550 nm was measured with an ELISA plate reader (Dynatech MR-7000; Dynatech Laboratories, Chantilly, Va., USA). […]

Human LDL = experiment: Inhibition of copper-induced LDL-cholesterol oxidation; conditions: CuSO4-induced, 37° C., 22 hours
Protocol: Human LDL solution was dialyzed overnight in PBS (10 mM, 0.15M NaCl, pH 7.4) at 4° C. under nitrogen blanket prior to the test. Sample solutions were prepared by dissolving the test compounds in ethanol at concentration of 500 μM. Ten microliters of sample solutions were transferred into a set of Eppendorf tubes, and the solvent was evaporated to dryness under a nitrogen stream. To each tube 0.1 ml of PBS was added, followed by vortexing for 1 min. An aliquot (0.8 ml) of the dialyzed and diluted LDL solution (0.125 mg/ml) was added to each tube, and the contents were mixed well and incubated at 37° C. for 15 min. The reaction was initiated by adding 0.1 ml of CuSO4 (20 μM, previously incubated). A blank containing only sample without LDL or CuSO4 was prepared for each test compound. After incubation of the reaction mixture at 37° C. for 22 hours, the conjugated dienes formed as a result of oxidation were measured spectrophotometrically at 234 nm. […] All absorbances for samples were blank-corrected. Discussion

iNOS = iNOS protein expression in LPS-stimulated RAW 264.7 macrophages (western blot); assay type: cell-based, murine; conditions: LPS 100 ng/ml, RAW 264.7, western blot; 20 and 40 μM for 1a-1c
Protocol: RAW 264.7 cells were cultured in Rosewell Park Memorial Institute (RPMI) 1640 media (without phenol red) supplemented with 10% endotoxin-free, heat-inactivated fetal calf serum, 100 units/ml penicillin, and 100 μg/ml streptomycin. When the cells reached a density of 2-3×10^6 cells/ml, they were activated by incubation in a medium containing E. coli lipopolysaccharide (LPS) (100 ng/ml). Various concentrations of compounds of the disclosure in dimethyl sulphoxide (DMSO) were added together with LPS. Cells were treated with 0.05% DMSO as the vehicle control. The stimulated murine macrophage cell line RAW 264.7 cells were washed with PBS and lysed in an ice-cold RIPA buffer (Tris-HCl, pH 7.2, 25 mM; 0.1% SDS; 1% Triton X-100; 1% sodium deoxycholate; 0.15 M NaCl; 1 mM EDTA) containing 1 mM phenylmethyl sulphonyl fluoride (PMSF), 10 μg/mL aprotinin, 1 mM sodium ortho-vanadate, and 5 μg/mL leupeptin. Protein concentrations were determined using the BCA method (Pierce, Rockford, Ill.). The samples (50 μg of protein) were mixed with 5-fold of sample buffer containing 0.3 M Tris-HCl (pH 6.8), 25% 2-mercaptoethanol, 12% sodium dodecyl sulphate (SDS), 25 mM EDTA, 20% glycerol, and 0.1% bromophenol blue. The mixtures were boiled at 100° C. for 5 min, prerun on a stacking gel, and then resolved by 12% SDS-polyacrylamide minigels at a constant current of 20 mA. For western blot, proteins on the gel were electro-transferred onto a […] immobile polyvinylidene fluoride (PVDF) membrane with a transfer buffer composed of 25 mM Tris-HCl (pH 8.9), 192 mM glycine, and 20% methanol, as described by Pan et al. (2000). […] The densities of the bands were quantitated using a densitometer (AlphaImager 2200 System). […] (7b) Inhibition Against LPS-Induced NO Production in RAW 264.7 Macrophage The LPS-induced NO production by the macrophages was determined as nitrite concentration in the culture medium according to the Griess reaction. […] The absorbance of the mixture at 550 nm was measured with an ELISA plate reader (Dynatech MR-7000; Dynatech Laboratories, Chantilly, Va., USA). […]

SMILES	logP [1]	IC50 ([2]; Mus musculus, RAW264.7) [µM]	Inhibition of COX-2 protein expression (COX-2)	Inhibition of LDL-cholesterol oxidation (conjugated diene formation) (Human LDL) [%]	Inhibition of iNOS protein expression (iNOS)	Lipophilicity (partition coefficient, P) [1]	IC50 [2] [µM]
CCCCCCCCCCCCCCCCCC(=O)Oc1cc(C(=O)OC2Cc3c(O)cc(O)cc3OC2c2cc(OC(=O)CCCCCCCCCCCCCCCCC)c(O)c(OC(=O)CCCCCCCCCCCCCCCCC)c2)cc(OC(=O)CCCCCCCCCCCCCCCCC)c1O (centres unmarked) [Compound 1a, EGCG stearate]	1.42 ± 0.02	40.7	decreased in the order of 1a>1b>EGCG>1c	16.33	–	–	–
CCC=CCC=CCC=CCC=CCC=CCCCC(=O)Oc1cc(C(=O)OC2Cc3c(O)cc(O)cc3OC2c2cc(OC(=O)CCCC=CCC=CCC=CCC=CCC=CCC)c(O)c(OC(=O)CCCC=CCC=CCC=CCC=CCC=CCC)c2)cc(OC(=O)CCCC=CCC=CCC=CCC=CCC=CCC)c1O (centres unmarked) [Compound 1b]	–	–	decreased in the order of 1a>1b>EGCG>1c	11.80	strong dose-dependent relationship in suppressing the cytokine production	1.10 ± 0.06 ^b	–
CCC=CCC=CCC=CCC=CCC=CCC=CCCC(=O)Oc1cc(C(=O)OC2Cc3c(O)cc(O)cc3OC2c2cc(OC(=O)CCC=CCC=CCC=CCC=CCC=CCC=CCC)c(O)c(OC(=O)CCC=CCC=CCC=CCC=CCC=CCC=CCC)c2)cc(OC(=O)CCC=CCC=CCC=CCC=CCC=CCC=CCC)c1O (centres unmarked) [Compound 1c]	–	–	decreased in the order of 1a>1b>EGCG>1c	8.18	the most potent in inhibiting the induction of iNOS expression	1.03 ± 0.10 ^b	–
O=C(O[C@@H]1Cc2c(O)cc(O)cc2O[C@@H]1c1cc(O)c(O)c(O)c1)c1cc(O)c(O)c(O)c1 [EGCG, Epigallocatechin gallate, reference compound]	0.48 ± 0.01	103	decreased in the order of 1a>1b>EGCG>1c	6.53	–	–	103
